29 compounds from patent publication US10213415B2, “Compounds as opioid receptor modulators” (JANSSEN PHARMACEUTICA NV, priority 2004, dated 2019) can be followed below.

Assay [1] has as its target T1, human mu opioid receptor (Homo sapiens, UniProt P35372).
T1 construct: purchased Perkin Elmer RBHOMM400UA; host or cells: Chinese Hamster Ovary cells (recombinant expression)
Description: Human Mu Opioid Receptor Binding Assay (CHO membranes, 3H-Damgo). The following applies: read-out: hKi μ. An outline of the steps: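 Radioligand displacement of ³H-Damgo (diluted to 3.6 nM pre-mix) from recombinant human mu receptor in CHO membranes, 2 h, room temperature, 50 mM Tris pH 7.5 with 5 mM MgCl2. Bound label read by filtration and scintillation counting; 1 μM unlabelled Damgo defines nonspecific binding.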

The target in assay [2] is T2, delta opioid receptor (Rattus norvegicus, UniProt P33533).
T2 construct: from tissue; host or cells: forebrain of male Wistar rats
T2 sequence (P33533 whole entry): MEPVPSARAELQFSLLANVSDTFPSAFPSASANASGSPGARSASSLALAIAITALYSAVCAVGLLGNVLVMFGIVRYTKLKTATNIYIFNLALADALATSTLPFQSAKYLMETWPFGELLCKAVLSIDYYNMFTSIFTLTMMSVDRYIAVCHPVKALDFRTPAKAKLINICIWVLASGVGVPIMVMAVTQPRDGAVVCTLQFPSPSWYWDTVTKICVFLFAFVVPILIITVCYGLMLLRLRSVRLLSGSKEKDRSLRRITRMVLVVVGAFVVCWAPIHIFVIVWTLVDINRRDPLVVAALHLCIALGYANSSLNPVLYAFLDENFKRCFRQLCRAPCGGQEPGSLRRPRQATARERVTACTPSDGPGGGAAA
Put plainly: Rat Brain Delta Opioid Receptor Binding Assay ([3H]DPDPE). The following applies: rat forebrain membranes, margin of error 10-20%, read-out: r Ki δ. Here is the method:
(§1) Male, Wistar rats (150-250 g, VAF, Charles River, Kingston, N.Y.) are killed by cervical dislocation, and their brains removed and placed immediately in ice cold Tris HCl buffer (50 mM, pH 7.4). The forebrains are separated from the remainder of the brain by a coronal transection, beginning dorsally at the colliculi and passing ventrally through the midbrain-pontine junction. After dissection, the forebrains are homogenized in Tris buffer in a Teflon® glass homogenizer. The homogenate is diluted to a concentration of 1 g of forebrain tissue per 80 mL Tris and centrifuged at 39,000×g for 10 min. The pellet is resuspended in the same volume of Tris buffer containing 5 mM MgCl2 with several brief pulses from a Polytron homogenizer. This particulate preparation is used for the delta opioid binding assays. Following incubation with the delta selective peptide ligand ˜4 nM [^3H]DPDPE at 25° C. for 2.5 h in a 96-well plate with total volume of 1 mL, the plate contents are filtered through Wallac filtermat B sheets on a Tomtec 96-well harvester. The filters are rinsed three times with 2 mL of 10 mM HEPES (pH 7.4), and dried in a microwave oven 2 min twice. To each sample area 2×50 μL of Betaplate Scint scintillation fluid (LKB) is added and analyzed on a LKB (Wallac) 1205 BetaPlate liquid scintillation counter.
The data are used to calculate either the % inhibition compared to control binding (when only a single concentration of test compound is evaluated) or a Ki value (when a range of concentrations is tested). % inhibition is calculated as: [(total dpm−test compound dpm)/(total dpm−nonspecific dpm)]*100. Kd and Ki values were calculated using GraphPad PRISM data analysis program.

Assay [3] concerns the target T3, mu opioid receptor (Rattus norvegicus, UniProt P33535).
T3 construct: from tissue; host or cells: forebrain of male Wistar rats
Put plainly: Rat Brain Mu Opioid Receptor Binding Assay (and Version 2a, [3H]DAMGO). The conditions noted are these: rat forebrain membranes, margin of error 10-20%, read-out: r Ki μ. Here is the method: as §1, with “mu-opioid” for “delta opioid”, “Following incubation with the delta selective peptide ligand ˜4 nM [^3H]DPDPE at 25° C. for 2.5 h in a 96-well plate with total volume of 1 mL, the plate contents are filtered through Wallac filtermat B sheets on a Tomtec 96-well harvester.” left out, “(pH7.4),” for “(pH 7.4),”
The data are used to calculate either the % inhibition compared to control binding (when only a single concentration of test compound is evaluated) or a Ki value (when a range of concentrations is tested). % inhibition is calculated as: [(total dpm-test compound dpm)/(total dpm-nonspecific dpm)]*100. Kd and Ki values were calculated using GraphPad PRISM data analysis program.
Male, Wistar rats (150-250 g, VAF, Charles River, Kingston, N.Y.) were killed by cervical dislocation, and their brains removed and placed immediately in ice-cold Tris HCl buffer (50 mM, pH 7.4). The forebrains were separated from the remainder of the brain by a coronal transection, beginning dorsally at the colliculi and passing ventrally through the midbrain-pontine junction. After dissection, the forebrains were homogenized in Tris buffer in a Teflon®-glass homogenizer. The homogenate was diluted to a concentration of 1 g of forebrain tissue per 80 mL Tris and centrifuged at 39,000×g for 10 min. The pellet was resuspended in the same volume of Tris buffer containing 5 mM MgCl2 with several brief pulses from a Polytron homogenizer. This particulate preparation was used for the mu opioid binding assay. Following incubation with 0.8 nM of the mu selective ligand [^3H]DAMGO at 25° C. for 2.5 h in a 96-well plate with total 1 mL, the plate contents were filtered through Wallac filtermat B sheets on a Tomtec 96-well harvester. The filters were rinsed three times with 2 mL of 10 mM HEPES (pH 7.4), and dried in a microwave oven. To each sample area, Betaplate Scint scintillation fluid (LKB) was added and the resulting radioactivity quantified on a LKB (Wallac) 1205 BetaPlate liquid scintillation counter. Kd and Ki values were calculated using the GraphPad PRISM data analysis program.

The target of assay [4] is T4, mu opioid receptor (CHO-hMOR cell membranes) (Homo sapiens, UniProt P35372).
T4 construct: purchased Receptor Biology, Inc. (Baltimore, Md.); host or cells: CHO cells (recombinant expression)
T4 sequence (P35372 whole entry): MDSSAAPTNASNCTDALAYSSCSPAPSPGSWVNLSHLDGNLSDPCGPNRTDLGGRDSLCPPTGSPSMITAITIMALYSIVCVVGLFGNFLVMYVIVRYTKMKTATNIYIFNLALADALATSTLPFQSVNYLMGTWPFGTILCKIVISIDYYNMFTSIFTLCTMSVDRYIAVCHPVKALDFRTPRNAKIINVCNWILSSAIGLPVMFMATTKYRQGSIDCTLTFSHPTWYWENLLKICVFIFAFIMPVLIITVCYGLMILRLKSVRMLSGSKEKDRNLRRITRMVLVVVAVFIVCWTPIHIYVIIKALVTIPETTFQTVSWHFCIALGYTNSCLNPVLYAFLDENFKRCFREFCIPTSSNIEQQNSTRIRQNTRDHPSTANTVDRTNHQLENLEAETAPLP
Put plainly: Mu Opioid Receptor Functional Assay: [35S]GTPγS Binding in CHO-hMOR Cell Membranes, Versions 1 and 2. It is filed as biochemical. The following applies: for MOR GTP binding assay_v1 (% I): version 1, % inhibition of agonist-stimulated GTPγS binding; for MOR GTP assay_v1 % of Basal: version 1, basal binding = 100%. An outline of the steps: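 Agonist-stimulated [35S]GTPγS (0.5 nM) binding measured by SPA in human MOR CHO membranes, buffer pH 7.6 with 100 mM NaCl, 5 mM MgCl2. Antagonist mode: % inhibition of stimulation by 1 μM SNC80; agonist mode: EC50 fitted. Basal binding without agonist, non-specific with 10 μM cold GTPγS.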
On the technique in general: GTPγS is a poorly hydrolysed GTP analogue; its binding reports G protein activation.

Bounds are passed on as bounds.

T3 sequence (P33535 whole entry): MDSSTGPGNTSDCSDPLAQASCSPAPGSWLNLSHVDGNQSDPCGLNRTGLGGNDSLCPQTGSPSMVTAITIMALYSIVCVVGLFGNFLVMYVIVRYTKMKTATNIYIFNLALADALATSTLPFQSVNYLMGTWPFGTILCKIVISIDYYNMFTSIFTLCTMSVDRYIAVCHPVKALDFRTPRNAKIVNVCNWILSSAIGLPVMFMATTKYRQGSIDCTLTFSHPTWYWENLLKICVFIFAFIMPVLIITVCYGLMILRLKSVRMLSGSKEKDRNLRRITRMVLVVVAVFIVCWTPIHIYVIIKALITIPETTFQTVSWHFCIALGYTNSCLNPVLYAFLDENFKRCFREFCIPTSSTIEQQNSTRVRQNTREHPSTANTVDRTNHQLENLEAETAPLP
T1 sequence (P35372 whole entry): as the sequence (P35372 whole entry) above

Turning to `C[C@@H](NC(=O)[C@@H](N)Cc1ccc(O)cc1)c1nc(-c2ccccc2)c[nH]1` [Cpd 212], the Ki in assay [1] was determined as 55 nM; in assay [2], 1280 nM; in assay [3] it was 103 nM.
The matching figures for `CC(C)N(C(=O)[C@@H](N)Cc1ccc(O)cc1)[C@H](C)c1nc(-c2ccccc2)c[nH]1` [Cpd 222]: 185 nM, 394 nM and 91.2 nM.
In the case of `Cc1cc(O)cc(C)c1C[C@H](N)C(=O)N[C@@H](COCc1ccccc1)c1nc(-c2ccccc2)c[nH]1` [Cpd 175], the Ki in assay [2] was determined as 166 nM. Besides, in assay [4], the “MOR GTP binding assay_v1 (% I)” value is 53.00% and the “MOR GTP assay_v1 % of Basal” value worked out at 471.00%. Besides, in assay [3], the Ki amounted to 3.6 nM.
In the case of `C[C@H](NC(=O)[C@@H](N)Cc1ccc(O)cc1)c1nc(-c2ccccc2)c[nH]1` [Cpd 213], the values for the Ki in assay [1], in assay [2] and in assay [3] were greater than 1000 nM, 5660 nM and 1260 nM, respectively.
With `COc1ccc(CN(C(=O)[C@@H](N)Cc2ccc(O)cc2)[C@@H](C)c2nc(-c3ccc(Cl)cc3)c(C)[nH]2)cc1C(=O)O` [Cpd 293], the Ki in assay [2] was 3170 nM; in assay [3], 646 nM.
The like results for `CC(C)[C@H](NC(=O)[C@@H](N)Cc1cccc(C#N)c1)c1nc(-c2ccccc2)c[nH]1` [Cpd 186] were, in that order, 515 nM and 5310 nM.
On to `CNC(=O)c1cc(C)c(C[C@H](N)C(=O)N(C)[C@H](C)c2nc(-c3ccccc3)c[nH]2)c(C)c1` [Cpd 184], for which, in assay [4], the “MOR GTP binding assay_v1 (% I)” value is reported as 13.00% and the “MOR GTP assay_v1 % of Basal” value was determined as 862.00%. The Ki in assay [3] was 19.5 nM.
Take `COc1ccc(CN(C(=O)[C@@H](N)Cc2c(C)cc(C(N)=O)cc2C)[C@H](C)c2nc(-c3ccc(Cl)cc3)c(C)[nH]2)cc1C(=O)O` [Cpd 278]: the Ki was 49 nM in assay [2] and 12 nM in assay [3].
For `COc1ccc(CN(Cc2nc(-c3ccccc3)c[nH]2)C(=O)[C@@H](N)Cc2c(C)cc(C(N)=O)cc2C)cc1C(=O)O` [Cpd 6], the figures for the Ki in assay [1] and in assay [2] were 2 nM and 1.7 nM, respectively.
For the compound `COC(=O)c1cc(CN(C(=O)[C@@H](N)Cc2ccc(C(N)=O)cc2)[C@H](C)c2nc(-c3ccccc3)c[nH]2)ccc1OC` [Cpd 281], the Ki in assay [2] was 721 nM; in assay [3], 399 nM.
In the case of `Cc1cc(C(=O)N2CCOCC2)cc(C)c1C[C@H](N)C(=O)N(C)[C@@H](C)c1nc(-c2ccccc2)c[nH]1` [Cpd 179], the Ki in assay [3] amounted to 7120 nM.
Regarding `CC(C)[C@H](NC(=O)[C@@H](N)Cc1ccc(O)cc1)c1nc(-c2ccccc2)c[nH]1` [Cpd 188], the Ki in assay [2] was found to be 541 nM; in assay [3] it was 307 nM.
In the case of `CC(C)C[C@@H](c1nc(-c2ccccc2)c[nH]1)N(C)C(=O)[C@@H](N)Cc1cccc(C(N)=O)c1` [Cpd 168], the results for the Ki in assay [2] and in assay [3] were 8870 nM and 5320 nM, respectively.
The like results for `CC(C)[C@H](NC(=O)[C@@H](N)Cc1cccc(C(N)=O)c1)c1nc(-c2ccccc2)c[nH]1` [Cpd 185] were, in that order, 182 nM and 6720 nM.
The like results for `COC(=O)c1cc(CN(C(=O)[C@H](N)Cc2ccc(C(N)=O)cc2)[C@H](C)c2nc(-c3ccccc3)c[nH]2)ccc1OC` [Cpd 284] were, in that order, 1530 nM and 1030 nM.
The like results for `C[C@@H](c1nc(-c2ccccc2)c[nH]1)N(C)C(=O)[C@@H](N)Cc1ccc(S(N)(=O)=O)cc1` [Cpd 189] were, in that order, 360 nM and 277 nM.
With `CN[C@@H](Cc1ccc(O)cc1)C(=O)N(Cc1ccc(OC)c(C(=O)O)c1)[C@@H](C)c1nc(-c2ccccc2)c[nH]1` [Cpd 262], the Ki was 3.24 nM in assay [1], 17.5 nM in assay [2] and 1.1 nM in assay [3].
For the compound `Cc1cc(C(N)=O)cc(C)c1C[C@H](N)C(=O)N(Cc1cccc(C(=O)O)c1)[C@@H](C)c1nc(-c2ccc(Cl)cc2)c(C)[nH]1` [Cpd 12], the Ki in assay [1] came to 4.1 nM; in assay [2], 0.08 nM.
In the case of `COc1ccc(CN(C(=O)[C@@H](N)Cc2ccc(O)cc2)[C@@H](C)c2nc(-c3ccccc3)c[nH]2)cc1C(N)=O` [Cpd 297], the Ki came out at 44 nM in assay [2] and 0.11 nM in assay [3].
In the case of `Cc1cc(O)cc(C)c1C[C@H](N)C(=O)N[C@@H](Cc1cccc(C(N)=O)c1)c1nc(-c2ccccc2)c[nH]1` [Cpd 172], the Ki in assay [3] came to 150 nM.
`COC(=O)c1cc(CN(C(=O)[C@@H](N)Cc2c(C)cc(C(N)=O)cc2C)[C@H](C)c2nc(-c3ccccc3)c[nH]2)ccc1OC` [Cpd 280]: the values for the Ki in assay [2] and in assay [3] were 32 nM and 3 nM, respectively.
The like results for `COC(=O)c1cc(CN(C(=O)[C@@H](N)Cc2ccc(O)cc2)[C@@H](C)c2nc(-c3ccccc3)c[nH]2)ccc1OC` [Cpd 279] were, in that order, 5.2 nM and 0.137 nM.
Consider `Cc1cc(C(=O)N2CCOCC2)cc(C)c1C[C@H](N)C(=O)N(C)[C@H](C)c1nc(-c2ccccc2)c[nH]1` [Cpd 180], for which the Ki in assay [2] is 5220 nM; in assay [3], 1210 nM.
For `Cc1cc(O)cc(C)c1C[C@H](N)C(=O)N(Cc1nc(-c2ccccc2)c[nH]1)C(C)CN(C)C` (some centres unmarked) [Cpd 167], the Ki in assay [1] was found to be 4.2 nM. Further, in assay [4], the “MOR GTP binding assay_v1 (% I)” value stood at 17.00% and the “MOR GTP assay_v1 % of Basal” value was determined as 780.00%. In addition, the Ki in assay [3] is 3.15 nM.
As to `Cc1cc(O)cc(C)c1C[C@H](N)C(=O)N(Cc1ccccc1)[C@H](C)c1nc(-c2ccccc2)c[nH]1` [Cpd 220], the Ki in assay [1] was 377 nM; in assay [2] it was 6920 nM; in assay [3], 157 nM.
Take `COc1ccc(CN(C(=O)[C@@H](N)Cc2c(C)cccc2C)[C@@H](C)c2nc(-c3ccccc3)c[nH]2)cc1C(=O)O` [Cpd 292]: the Ki in assay [2] turned out to be 100 nM; in assay [3], 0.65 nM.
In the case of `Cc1cc(O)cc(C)c1C[C@H](N)C(=O)N[C@H](c1nc(-c2ccccc2)c[nH]1)C(C)C` [Cpd 187], the Ki in assay [2] worked out at 5200 nM; in assay [3], 121 nM.
The matching figures for `COc1ccc(CN(C(=O)[C@@H](N)Cc2ccc(O)cc2)[C@@H](C)c2nc(-c3ccccc3)c[nH]2)cc1C(=O)N1CCOCC1` [Cpd 298]: 44 nM and 0.3 nM.
Regarding `Cc1cc(O)cc(C)c1C[C@H](N)C(=O)N[C@@H](CC(C)C)c1nc(-c2ccccc2)c[nH]1` [Cpd 176], in assay [3], the Ki is 156 nM.
